Results reported in patent EP4650351A1, “INHIBITOR OF COMPLEMENT FACTOR B” (Nanjing Chia Tai Tianqing Pharmaceutical Co., Ltd., priority 2023, dated 2024).
Each block holds one compound with its values, some of them ahead of it.

Columns and labels:
[1] = target: T1, human complement factor B (Homo sapiens, UniProt P00751); assay: TR-FRET competitive binding assay of human complement factor B (Cy5-labeled probe); settings: inhibitory activity against complement factor B; biotin-labeled factor B 25 nM, Cy5 probe 75 nM, 4 °C
T1 construct: purchased ComplementTech A135
T1 sequence (P00751 26-764): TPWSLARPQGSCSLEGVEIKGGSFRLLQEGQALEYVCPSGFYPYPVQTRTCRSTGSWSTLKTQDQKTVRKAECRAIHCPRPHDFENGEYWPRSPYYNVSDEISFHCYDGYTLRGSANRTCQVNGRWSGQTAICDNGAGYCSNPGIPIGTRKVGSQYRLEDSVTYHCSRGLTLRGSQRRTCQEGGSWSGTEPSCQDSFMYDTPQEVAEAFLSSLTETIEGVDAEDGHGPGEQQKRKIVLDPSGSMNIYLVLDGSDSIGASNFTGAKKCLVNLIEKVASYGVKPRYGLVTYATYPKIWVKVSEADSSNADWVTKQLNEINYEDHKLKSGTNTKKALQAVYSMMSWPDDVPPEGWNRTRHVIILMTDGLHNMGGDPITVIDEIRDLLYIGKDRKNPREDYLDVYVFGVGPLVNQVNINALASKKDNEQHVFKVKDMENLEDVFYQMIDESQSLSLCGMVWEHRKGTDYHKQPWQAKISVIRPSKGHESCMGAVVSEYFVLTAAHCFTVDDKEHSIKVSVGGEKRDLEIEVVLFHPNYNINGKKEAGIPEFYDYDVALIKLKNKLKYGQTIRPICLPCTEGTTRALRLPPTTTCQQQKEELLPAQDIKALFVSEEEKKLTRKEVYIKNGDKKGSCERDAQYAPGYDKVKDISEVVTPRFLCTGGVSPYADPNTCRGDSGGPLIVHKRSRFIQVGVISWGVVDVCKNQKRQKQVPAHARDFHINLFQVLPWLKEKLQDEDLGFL

[2] = tested on: alternative complement pathway in human serum; assay: Complement deposition assay of serum alternative pathway (Wieslab Complement system Alternative pathway kit); type: biochemical; settings: human serum diluted 18-fold, 37 °C 60 minutes, absorbance 405 nm
Protocol: The Wieslab® Complement system Alternative pathway kit (WIESLAB® Complement system Alternative pathway AP330 RUO) was used to detect the inhibitory activity of the compounds on the alternative complement pathway in human serum. Human serum was diluted 18-fold with the kit diluent. The diluted serum was added to a 96-well plate at 130 µL/well. Using a compound titrator (Tecan, D300e), test compounds at corresponding concentrations were added. The test concentration of the compounds started at 10 µM, with 3-fold serial dilution for 6 concentration points, detected in single wells. The DMSO ratio was uniformly adjusted to 0.1% using DMSO in all drug-treated wells. In the positive control wells, 0.1% DMSO and 130 µL of diluted serum were added; in the negative control wells, 0.1% DMSO and 130 µL of the kit diluent were added. The mixtures were pre-incubated at room temperature for 15 min. The incubated mixtures were transferred to the 96-well plate provided by the kit at 100 µL per well, incubated at 37 °C for 60 minutes, and the liquid in the wells was discarded. 300 µL of the washing solution in the kit was added to each well. The wells were washed three times. 100 µL of the conjugated antibody Conjugate in the kit was added to each well, and it was incubated at room temperature for 30 minutes. The liquid in the wells was removed. 300 µL of the washing solution in the kit was added to each well and the wells were washed three times. 100 µL of the substrate solution was added to each well and incubated at room temperature for 30 minutes. […] Table 2. Results of complement deposition in serum alternative pathway

[3] = Pharmacokinetic study in mice; type: in vivo; settings: mouse, 10 mg/kg, PO (10 mpk), male ICR (CD-1) mice, plasma
Protocol: Experimental Example 3: Pharmacokinetic study in mice
Purpose of the experiment: To investigate the plasma pharmacokinetics in male ICR (CD-1) mice after single intravenous administration and gavage administration of the compounds of the present disclosure.
Experimental animals: Male ICR (CD-1) mice, body weight 32-35 g; supplier: Vital River Laboratory Animal Technology Co., Ltd.
Experimental procedures: Intravenous Administration (IV); Oral Gavage (PO); the dose was 10 mg/kg (vehicle: water (containing 0.5% methylcellulose (w/v) and 0.5% Tween 80 (v/v)).
Sample collection: At each set time point, 40 µL of blood was collected from the orbital sinus of the experimental animals. Whole blood samples were placed in anticoagulant tubes containing EDTA-K2. The whole blood samples were centrifuged at 1500 g for 10 min to separate plasma. The upper-layer plasma samples were collected into sample tubes for LC-MS/MS analysis.
Data analysis: Plasma concentrations were processed using the non-compartmental model in WinNonlin™Version6.3 (Pharsight, Mountain View, CA) pharmacokinetic software. Pharmacokinetic parameters Cl, T1/2, Cmax, and AUC0-24 were calculated using the linear-log trapezoidal method, and the results were shown in the table below. Table 3. Results of the pharmacokinetic study

[4] = tested on: collagen antibody and lipopolysaccharide-induced arthritis (CAIA); assay: Collagen antibody-induced mouse arthritis model (Experimental Example 4); type: in vivo, BALB/c mice; settings: Mean, 20 mg/kg oral twice a day
Protocol: Experimental animals: BALB/c mice, male, 6-8 weeks, 18-20 g; supplier: Beijing Vital River Laboratory Animal Technology Co., Ltd. 1. […] 2. Administration: Table 4. Administration groups and administration schemes [table] The data were analyzed by One-way ANOVA/Dunnett's using Graphpad Prism and by Repeat Measurement ANOVA/Bonferroni using SPSS. P< 0.05 was considered to indicate a significant difference. Arthritis scoring: Starting from the day of modeling, the incidence of arthritis in the limbs of the animals in each group was observed three times a week until the end of the experiment. According to the different degrees of lesions (erythema and swelling), the scoring was carried out according to the standard of 0-4 points. […] Joint swelling: Starting from the day of modeling, the thickness of the left and right foot pads of the animals was measured three times a week using a micrometer (Mitutoyo, 0-25 mm, minimal 0.001 mm) until the end of the experiment.

[5] = tested on: collagen antibody and lipopolysaccharide-induced arthritis (CAIA); assay: Pharmacodynamic study in the mouse CAIA model (Experimental Example 5); type: in vivo, BALB/c mice; settings: Mean; 20mg/kg bid oral, Day0-Day14; larger AUC = greater severity
Protocol: Experimental Animals: BALB/c mice, male, 6-8 weeks, 18-20 g; Supplier: Shanghai Jihui Laboratory Animal Care Co., Ltd 1. Induction of the mouse CAIA model: On Day 0, all mice were intravenously injected via the tail vein with 0.15 mL of Arthrogen-CIA 5-clone mixed type II collagen antibody (10 mg/mL, Chondrex). […] 2. Administration: Table 7. Administration groups and administration schemes [table] The experimental data are expressed as mean±standard error (mean ± S.E.M.). The data were analyzed by One-way ANOVA/Dunnett's using Graphpad Prism and by Repeat Measurement ANOVA/Bonferroni using SPSS. P< 0.05 was considered to indicate a significant difference. Arthritis scoring: Starting from the day of modeling, the incidence of arthritis in the limbs of the animals in each group was observed three times a week until the end of the experiment. According to the different degrees of lesions (erythema and swelling), the scoring was carried out according to the standard of 0-4 points. […] The larger the AUC, the greater the severity of arthritis was. […] Arthritis score AUC

IC50 [1]: 6 nM | IC50 [2]: 54.1 nM | Cmax [3]: 1290 ng/mL | AUC(0-t) ([3]; read-out: AUC0-24): 9680 ng·h/mL
Compound: COc1cc(C)c2[nH]ccc2c1O[C@@H]1CCN(CC(F)F)C[C@H]1c1ccc(C(=O)O)cc1 [Example 13a-2, 4-((3R,4R)-1-(2,2-difluoroethyl)-4-((5-methoxy-7-methyl-1H-indol-4-yl)oxy)piperidin-3-yl)benzoic acid]
Arthritis score ([4]; Day0): 0.00 | Thickness of foot pads (mm) ([4]; Day0): 1.60 mm | Arthritis score ([4]; Day3): 0.00 | Thickness of foot pads (mm) ([4]; Day3): 1.607 mm | Arthritis score ([4]; Day5): 1.17 | Thickness of foot pads (mm) ([4]; Day5): 1.632 mm | Arthritis score ([4]; Day7): 1.83 | Thickness of foot pads (mm) ([4]; Day7): 1.665 mm | Arthritis score ([4]; Day10): 1.50 | Thickness of foot pads (mm) ([4]; Day10): 1.666 mm | Arthritis score ([4]; Day12): 1.33 | Thickness of foot pads (mm) ([4]; Day12): 1.661 mm | Arthritis score ([4]; Day14): 1.50 | Thickness of foot pads (mm) ([4]; Day14): 1.669 mm

IC50 [1]: 12.4 nM | IC50 [2]: […] | Cmax ([3]; in vivo): 601 ng/mL | AUC(0-t) at 24 h ([3]; in vivo, read-out: AUC0-24): 5750 ng·h/mL
Compound: COc1cc(C)c2[nH]ccc2c1SC1CCN(CC(F)F)CC1c1ccc(C(=O)O)cc1 (single isomer, unassigned) [Example 16-2]
Arthritis score AUC [5]: 7.25

IC50 [1]: 10.2 nM | IC50 [2]: 59.3 nM | Cmax [3]: 1370 ng/mL | AUC(0-t) ([3]; read-out: AUC0-24): 6690 ng·h/mL
Compound: COc1cc(C)c2[nH]ccc2c1O[C@@H]1CCN(CC(F)(F)F)C[C@H]1c1ccc(C(=O)O)cc1 [Example 14a-2, 4-((3R,4R)-4-((5-methoxy-7-methyl-1H-indol-4-yl)oxy)-1-(2,2,2-trifluoroethyl)piperidin-3-yl)benzoic acid]
Arthritis score AUC [5]: 3.00
